Assay results as given in patent US6929799B2, “D-alanine racemase mutants of mycobacteria and uses therefore” (priority 2001, dated 2005).
≈ marks a conversion by molar mass, not a printed value. Read-outs that look alike come from different tables or passages of the source.

Columns and labels:
[1] = system: M. smegmatis wild type mc2155; test: microbe, parasite or virus in culture; assay type: cell-based, Mycobacterium smegmatis; conditions: for MIC: Mycolicibacterium smegmatis
[2] = system: M. smegmatis TAM23 alr mutant; test: MIC by microplate twofold dilution, alr mutant strain; assay type: cell-based, Mycobacterium smegmatis; conditions: for MIC: Mycolicibacterium smegmatis, TAM23ALRMUTANT
M. smegmatis mc2155 = assay type: cell-based, Mycobacterium smegmatis
M. smegmatis TAM23 = test: Bactericidal action of DCS in broth culture, alr mutant strain; assay type: cell-based, Mycobacterium smegmatis
[3] = target: M. smegmatis D-alanine racemase (AlrA) (Mycolicibacterium smegmatis, UniProt P94967); conditions: Caceres et al., 1997; listed as DCS; cited from earlier work
Chain of M. smegmatis D-alanine racemase (AlrA) (P94967 whole entry): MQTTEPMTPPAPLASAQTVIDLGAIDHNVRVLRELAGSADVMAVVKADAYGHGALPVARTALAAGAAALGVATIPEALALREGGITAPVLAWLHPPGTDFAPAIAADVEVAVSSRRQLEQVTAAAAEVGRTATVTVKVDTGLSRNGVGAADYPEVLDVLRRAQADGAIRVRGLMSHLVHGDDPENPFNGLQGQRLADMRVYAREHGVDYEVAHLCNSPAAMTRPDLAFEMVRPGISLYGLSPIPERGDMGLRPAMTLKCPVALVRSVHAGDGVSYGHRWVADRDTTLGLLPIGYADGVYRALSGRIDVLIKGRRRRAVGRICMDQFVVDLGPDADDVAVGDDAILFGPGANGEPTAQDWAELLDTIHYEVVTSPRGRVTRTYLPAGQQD

D-alanine ligase = conditions: David, 1969; Chacon, Ph.D. thesis; cited from earlier work
[4] = MC2155, 48 h, read-out: Minimal Inhibitory Concentration (MIC)
[5] = 48 h, read-out: Minimal Inhibitory Concentration (MIC), TAM23 alr mutant, inoculum grown with 50 mM D-alanine, Middlebrook 7H9, 48 h
[6] = 48 h, read-out: Minimal Inhibitory Concentration (MIC), TAM23 alr mutant, inoculum grown without D-alanine, Middlebrook 7H9, 48 h

Molecule `NCC[C@H](O)C(=O)N[C@@H]1C[C@H](N)[C@@H](O[C@H]2O[C@H](CN)[C@@H](O)[C@H](O)[C@H]2O)[C@H](O)[C@H]1O[C@H]1O[C@H](CO)[C@@H](O)[C@H](N)[C@H]1O` [Amikacin, amikacin] has an MIC [1, 4] of 1.56 µg/mL (≈ 2.66 µM), an MIC [2, 5] of 1.56 µg/mL (≈ 2.66 µM) and an MIC [2, 6] of 1.56 µg/mL (≈ 2.66 µM).
For `N[C@@H]1CON=C1O` [D-Cycloserine, D-cycloserine], the “Minimal Inhibitory Concentration (MIC)” value [1] was 75.0 µg/mL, the MIC [1, 4] was 75 µg/mL (≈ 735 µM) and the MIC ([1]; MC2155, read-out: MIC with D-alanine added directly into the MIC test cultures) was 1200 µg/mL (≈ 11800 µM). It also gave an MIC [2, 5] of 10.2 µg/mL (≈ 99.9 µM), an MIC [2, 6] of 2.56 µg/mL (≈ 25.1 µM) and an MIC ([2]; TAM23, independent of prior growth conditions of the inocula, read-out: MIC with D-alanine added directly into the MIC test cultures) of 1200 µg/mL (≈ 11800 µM). For the same molecule, the “MIC for TAM23, times lower than the MIC for the wild-type strain” value ([2]; inoculum grown with D-alanine, washed) was “about 7.5 times”, the “Sensitivity of TAM23 relative to wild type (MIC ratio)” value ([2]; inoculum grown without D-alanine) was “about 30 fold” and the “Bactericidal effect (optical density and viable counts)” value (M. smegmatis mc2155) was “rapid death by lysis”. The “Bactericidal effect (optical density and viable counts)” value (M. smegmatis TAM23; DCS at 50 times the MIC (128 μg/ml), broth without D-alanine, up to 72 h) was “rapid death by lysis”, the “Bactericidal drug concentration for mutant strain, fold lower than for wild-type strain” value (M. smegmatis TAM23; absolute drug concentrations) was 30 fold and the “Inhibition of D-alanine racemase” value [3] was “inhibited by DCS in a concentration-dependent manner”. For the same molecule, the “Inhibition of D-alanine ligase activity” value (D-alanine ligase) was “inhibited”.
In the case of `CC[C@@H](CO)NCCN[C@@H](CC)CO` [Ethambutol, ethambutol], the MIC [1, 4] is reported as 3.13 µg/mL (≈ 15.3 µM), the MIC [2, 5] is reported as 3.13 µg/mL (≈ 15.3 µM) and the MIC [2, 6] is reported as 3.13 µg/mL (≈ 15.3 µM).
For `CO[C@H]1/C=C/O[C@@]2(C)Oc3c(C)c(O)c4c(c3C2=O)C2=NC3(CCN(CC(C)C)CC3)NC2=C(NC(=O)/C(C)=C\C=C\[C@H](C)[C@H](O)[C@@H](C)[C@@H](O)[C@@H](C)[C@H](OC(C)=O)[C@@H]1C)C4=O` [Rifabutin, rifabutin], the MIC [1, 4] was 2 µg/mL (≈ 2.36 µM), the MIC [2, 5] was 1 µg/mL (≈ 1.18 µM) and the MIC [2, 6] was 2 µg/mL (≈ 2.36 µM).
